# “And” between values parts separate entries of the source, which are not always exact repeats. Equal values may be shown once. Residues, ends and D or L forms follow the SMILES beside them. *: point of attachment. NHPh = c1ccc(N*)cc1
# System: C57BL/6 mice
# Assay: Capsaicin-induced mechanical hypersensitivity (von Frey)
# Format: in vivo, mouse
# Parameters: LVF Mean / HVF Mean / MECHANICAL LVF / MECHANICAL HVF: unit not given here
# Excerpt: FGF13 is a neuronal gene ubiquitously transcribed in DRG neuronal subtypes ([43]–[46]). To investigate neuronal subtype enrichment of the FGF13 transcript, we examined a gene panel including FGF13, SCN9A, and several marker genes in mouse single-cell transcriptomic data (Supplemental Figure 10) ([43]–[46]). […] Critically, putative silent nociceptors marked by somatostatin (SST), and the nicotinic cholinergic receptor α-3 subunit (CHRNA3) contribute to development of inflammatory mechanical hyperalgesia ([47]). […] We next determined if PW164 modulation of the FGF13/Nav1.7 complex could suppress nociceptive behaviors in WT mice. We tested whether intraplantar (i.pl.) injection (5 μL) of PW164 altered hind paw withdrawal in response to low or high intensity von Frey filament (LVF or HVF, respectively) mechanical stimulation (Figure 3A). […] Next, we evaluated PW164’s effect on mechanical and thermal hindpaw sensitivity in capsaicin-induced nociceptive hypersensitivity models. […] Next, we performed in vivo target validation in WT mice that received an intrathecal (i.t.) injection in L5 of AAV2-shFGF13 (6 μL, viral titers 1 × 10^12 vector genomes (vg)/mL); a control group received an equal number of AAV2-shCTRL particles (Figure 3C).
# Experiments were performed on 6- to 12-week-old male C57BL/6 mice (The Jackson Laboratory, Bar Harbor, ME) housed in the AAALAC-accredited facility at the University of Texas Medical Branch. Mice were group-housed with up to 5 mice per cage on a 12-to-12-hour light–dark cycle and had access to water and food ad libitum. All protocols were approved by the Institutional Animal Care and Use Committee (IACUC) at the University of Texas Medical Branch and in accordance with the National Institutes of Health (NIH) guidelines.
# PW164 and ZL192 were dissolved in DMSO and saline in a ratio of 1:10. 0.1% capsaicin (10% ethanol, 10% Tween-20 in saline; Sigma-Aldrich). All the compounds were injected at the center of the hind paw. The control group received a DMSO-saline mixture. […]
# Bupivacaine was prepared from a 1:2 dilution with sterile 0.9% saline and locally injected in the center of the paw at 7 mg/ml.
# AAV2 viral particles packaged by the University of North Carolina Gene Therapy Core Facility (viral titer ranging […]
# Before intrathecal injections in the lumbar region, mice were maintained in an anesthetizing box with 2% isoflurane to induce unconsciousness. Six microliters of viral vector were gently injected into the CSF through a 30-gauge needle with a Hamilton syringe in the lumbar area between vertebrae L4 and L5 by gently gripping the iliac crest of the mouse and inserting the needle with an angle of 45°. The correct procedure was confirmed by the mouse’s tail reflexiv e flick.
# Assessment of mechanical sensitivity
# Mechanical sensitivity was assessed using von Frey filaments (VFF 0.1g and 1.0 g force) in mice that were either naïve or received intraplantar (i.p.) injection of capsaicin. VFFs were applied at the injection site (capsaicin or […]
# [1] = Zl 0192 .06mg/ml 5ul site 2 i.d(after cap 0.5h ), Male GFP mouse site 1, hour 0
# [2] = Zl 0192 .06mg/ml 5ul site 2 i.d(after cap 0.5h ), Male GFP mouse site 1, hour 0.5
# [3] = Zl 0192 .06mg/ml 5ul site 2 i.d(after cap 0.5h ), Male GFP mouse site 1, hour 1
# [4] = Zl 0192 .06mg/ml 5ul site 2 i.d(after cap 0.5h ), Male GFP mouse site 1, hour 1.5
# [5] = Zl 0192 .06mg/ml 5ul site 2 i.d(after cap 0.5h ), Male GFP mouse site 1, hour 2
# [6] = Zl 0192 .06mg/ml 5ul site 2 i.d(after cap 0.5h ), Male GFP mouse site 1, hour 3
# [7] = Zl 0192 .06mg/ml 5ul site 2 i.d(after cap 0.5h ), Male GFP mouse site 2, hour 0
# [8] = Zl 0192 .06mg/ml 5ul site 2 i.d(after cap 0.5h ), Male GFP mouse site 2, hour 0.5
# [9] = Zl 0192 .06mg/ml 5ul site 2 i.d(after cap 0.5h ), Male GFP mouse site 2, hour 1
# [10] = Zl 0192 .06mg/ml 5ul site 2 i.d(after cap 0.5h ), Male GFP mouse site 2, hour 1.5
# [11] = Zl 0192 .06mg/ml 5ul site 2 i.d(after cap 0.5h ), Male GFP mouse site 2, hour 2
# [12] = Zl 0192 .06mg/ml 5ul site 2 i.d(after cap 0.5h ), Male GFP mouse site 2, hour 3
# [13] = Zl 0192 .06mg/ml 5ul site 2 i.d., Male GFP mouse site 1, hour 0
# [14] = Zl 0192 .06mg/ml 5ul site 2 i.d., Male GFP mouse site 1, hour 0.5
# [15] = Zl 0192 .06mg/ml 5ul site 2 i.d., Male GFP mouse site 1, hour 1
# [16] = Zl 0192 .06mg/ml 5ul site 2 i.d., Male GFP mouse site 1, hour 1.5
# [17] = Zl 0192 .06mg/ml 5ul site 2 i.d., Male GFP mouse site 1, hour 2
# [18] = Zl 0192 .06mg/ml 5ul site 2 i.d., Male GFP mouse site 1, hour 3
# [19] = Zl 0192 .06mg/ml 5ul site 2 i.d., Male GFP mouse site 2, hour 0
# [20] = Zl 0192 .06mg/ml 5ul site 2 i.d., Male GFP mouse site 2, hour 0.5
# [21] = Zl 0192 .06mg/ml 5ul site 2 i.d., Male GFP mouse site 2, hour 1
# [22] = Zl 0192 .06mg/ml 5ul site 2 i.d., Male GFP mouse site 2, hour 1.5
# [23] = Zl 0192 .06mg/ml 5ul site 2 i.d., Male GFP mouse site 2, hour 2
# [24] = Zl 0192 .06mg/ml 5ul site 2 i.d., Male GFP mouse site 2, hour 3
# [25] = Zl 0192 .18mg/ml 5ul site 2 i.d(after cap 0.5h ), Male GFP mouse site 1, hour 0
# [26] = Zl 0192 .18mg/ml 5ul site 2 i.d(after cap 0.5h ), Male GFP mouse site 1, hour 0.5
# [27] = Zl 0192 .18mg/ml 5ul site 2 i.d(after cap 0.5h ), Male GFP mouse site 1, hour 1
# [28] = Zl 0192 .18mg/ml 5ul site 2 i.d(after cap 0.5h ), Male GFP mouse site 1, hour 1.5
# [29] = Zl 0192 .18mg/ml 5ul site 2 i.d(after cap 0.5h ), Male GFP mouse site 1, hour 2
# [30] = Zl 0192 .18mg/ml 5ul site 2 i.d(after cap 0.5h ), Male GFP mouse site 1, hour 3
# [31] = Zl 0192 .18mg/ml 5ul site 2 i.d(after cap 0.5h ), Male GFP mouse site 2, hour 0
# [32] = Zl 0192 .18mg/ml 5ul site 2 i.d(after cap 0.5h ), Male GFP mouse site 2, hour 0.5
# [33] = Zl 0192 .18mg/ml 5ul site 2 i.d(after cap 0.5h ), Male GFP mouse site 2, hour 1
# [34] = Zl 0192 .18mg/ml 5ul site 2 i.d(after cap 0.5h ), Male GFP mouse site 2, hour 1.5
# [35] = Zl 0192 .18mg/ml 5ul site 2 i.d(after cap 0.5h ), Male GFP mouse site 2, hour 2
# [36] = Zl 0192 .18mg/ml 5ul site 2 i.d(after cap 0.5h ), Male GFP mouse site 2, hour 3
# [37] = Zl 0192 .18mg/ml 5ul site 2 i.d., Male GFP mouse site 1, hour 0
# [38] = Zl 0192 .18mg/ml 5ul site 2 i.d., Male GFP mouse site 1, hour 0.5
# [39] = Zl 0192 .18mg/ml 5ul site 2 i.d., Male GFP mouse site 1, hour 1
# [40] = Zl 0192 .18mg/ml 5ul site 2 i.d., Male GFP mouse site 1, hour 1.5
# [41] = Zl 0192 .18mg/ml 5ul site 2 i.d., Male GFP mouse site 1, hour 2
# [42] = Zl 0192 .18mg/ml 5ul site 2 i.d., Male GFP mouse site 1, hour 3
# [43] = Zl 0192 .18mg/ml 5ul site 2 i.d., Male GFP mouse site 2, hour 0
# [44] = Zl 0192 .18mg/ml 5ul site 2 i.d., Male GFP mouse site 2, hour 0.5
# [45] = Zl 0192 .18mg/ml 5ul site 2 i.d., Male GFP mouse site 2, hour 1
# [46] = Zl 0192 .18mg/ml 5ul site 2 i.d., Male GFP mouse site 2, hour 1.5
# [47] = Zl 0192 .18mg/ml 5ul site 2 i.d., Male GFP mouse site 2, hour 2
# [48] = Zl 0192 .18mg/ml 5ul site 2 i.d., Male GFP mouse site 2, hour 3
smiles,measurement,setting,value
CC(=O)N[C@@H](Cc1ccccc1)C(=O)N[C@@H](CC(C)C)C(=O)N1CCC[C@H]1C(=O)N[C@@H](CCCCN)C(=O)Nc1ccccc1 [Zl 0192] (Ac-FLPK-NHPh),MECHANICAL HVF,[1],50
same,MECHANICAL LVF,[1],0
same,MECHANICAL HVF,[2],100
same,MECHANICAL LVF,[2],70
same,MECHANICAL HVF,[3],100
same,MECHANICAL LVF,[3],70
same,MECHANICAL HVF,[4],100
same,MECHANICAL LVF,[4],80
same,MECHANICAL HVF,[5],100
same,MECHANICAL LVF,[5],80 and 70
same,MECHANICAL HVF,[6],100
same,MECHANICAL LVF,[6],80 and 70
same,MECHANICAL HVF,[7],50
same,MECHANICAL LVF,[7],0
same,MECHANICAL HVF,[8],100
same,MECHANICAL LVF,[8],50 and 60
same,MECHANICAL HVF,[9],100
same,MECHANICAL LVF,[9],60
same,MECHANICAL HVF,[10],100
same,MECHANICAL LVF,[10],60 and 70
same,MECHANICAL HVF,[11],100
same,MECHANICAL LVF,[11],70 and 60
same,MECHANICAL HVF,[12],100
same,MECHANICAL LVF,[12],30 and 40
same,MECHANICAL HVF,[13],50
same,MECHANICAL LVF,[13],0
same,MECHANICAL HVF,[14],100
same,MECHANICAL LVF,[14],40 and 70
same,MECHANICAL HVF,[15],100
same,MECHANICAL LVF,[15],70 and 80
same,MECHANICAL HVF,[16],100
same,MECHANICAL LVF,[16],80 and 70
same,MECHANICAL HVF,[17],80 and 90
same,MECHANICAL LVF,[17],50
same,MECHANICAL HVF,[18],80
same,MECHANICAL LVF,[18],20 and 30
same,MECHANICAL HVF,[19],50
same,MECHANICAL LVF,[19],0
same,MECHANICAL HVF,[20],100
same,MECHANICAL LVF,[20],40 and 60
same,MECHANICAL HVF,[21],100
same,MECHANICAL LVF,[21],70
same,MECHANICAL HVF,[22],90 and 70
same,MECHANICAL LVF,[22],60 and 50
same,MECHANICAL HVF,[23],80 and 70
same,MECHANICAL LVF,[23],30 and 40
same,MECHANICAL HVF,[24],80 and 50
same,MECHANICAL LVF,[24],20 and 10
same,MECHANICAL HVF,[25],60 and 50
same,MECHANICAL LVF,[25],0
same,MECHANICAL HVF,[26],100
same,MECHANICAL LVF,[26],70 and 60
same,MECHANICAL HVF,[27],100
same,MECHANICAL LVF,[27],70 and 60
same,MECHANICAL HVF,[28],100
same,MECHANICAL LVF,[28],80 and 90
same,MECHANICAL HVF,[29],100
same,MECHANICAL LVF,[29],80 and 90
same,MECHANICAL HVF,[30],100
same,MECHANICAL LVF,[30],90 and 80
same,MECHANICAL HVF,[31],50
same,MECHANICAL LVF,[31],0
same,MECHANICAL HVF,[32],100
same,MECHANICAL LVF,[32],60 and 70
same,MECHANICAL HVF,[33],100
same,MECHANICAL LVF,[33],60
same,MECHANICAL HVF,[34],100
same,MECHANICAL LVF,[34],60 and 70
same,MECHANICAL HVF,[35],100
same,MECHANICAL LVF,[35],70 and 60
same,MECHANICAL HVF,[36],100
same,MECHANICAL LVF,[36],70
same,MECHANICAL HVF,[37],50
same,MECHANICAL LVF,[37],0
same,MECHANICAL HVF,[38],100
same,MECHANICAL LVF,[38],40 and 50
same,MECHANICAL HVF,[39],100
same,MECHANICAL LVF,[39],80
same,MECHANICAL HVF,[40],100
same,MECHANICAL LVF,[40],70
same,MECHANICAL HVF,[41],100
same,MECHANICAL LVF,[41],70 and 60
same,MECHANICAL HVF,[42],100
same,MECHANICAL LVF,[42],60
same,MECHANICAL HVF,[43],50
same,MECHANICAL LVF,[43],0
same,MECHANICAL HVF,[44],100
same,MECHANICAL LVF,[44],60 and 50
same,MECHANICAL HVF,[45],100
same,MECHANICAL LVF,[45],70 and 60
same,MECHANICAL HVF,[46],100
same,MECHANICAL LVF,[46],60
same,MECHANICAL HVF,[47],100
same,MECHANICAL LVF,[47],70
same,MECHANICAL HVF,[48],100
same,MECHANICAL LVF,[48],50

# — PMC12259270, “Sensory neuron–expressed FGF13 controls nociceptive signaling in diabetic neuropathy models” (The Journal of Clinical Investigation, 2025)
